Among the data in patent US20260200890A1, “ADAR1 INHIBITORS AND METHODS OF USING THE SAME” (AVAMMUNE THERAPEUTICS INC., priority 2022, published 2026) are EC50 values, retold here.

The assay deals with T1, ADAR1 (Homo sapiens, UniProt P55265).
T1 construct: endogenous in cells; host or cells: p110 KO A549 dual cells
T1 sequence (P55265 1-1226): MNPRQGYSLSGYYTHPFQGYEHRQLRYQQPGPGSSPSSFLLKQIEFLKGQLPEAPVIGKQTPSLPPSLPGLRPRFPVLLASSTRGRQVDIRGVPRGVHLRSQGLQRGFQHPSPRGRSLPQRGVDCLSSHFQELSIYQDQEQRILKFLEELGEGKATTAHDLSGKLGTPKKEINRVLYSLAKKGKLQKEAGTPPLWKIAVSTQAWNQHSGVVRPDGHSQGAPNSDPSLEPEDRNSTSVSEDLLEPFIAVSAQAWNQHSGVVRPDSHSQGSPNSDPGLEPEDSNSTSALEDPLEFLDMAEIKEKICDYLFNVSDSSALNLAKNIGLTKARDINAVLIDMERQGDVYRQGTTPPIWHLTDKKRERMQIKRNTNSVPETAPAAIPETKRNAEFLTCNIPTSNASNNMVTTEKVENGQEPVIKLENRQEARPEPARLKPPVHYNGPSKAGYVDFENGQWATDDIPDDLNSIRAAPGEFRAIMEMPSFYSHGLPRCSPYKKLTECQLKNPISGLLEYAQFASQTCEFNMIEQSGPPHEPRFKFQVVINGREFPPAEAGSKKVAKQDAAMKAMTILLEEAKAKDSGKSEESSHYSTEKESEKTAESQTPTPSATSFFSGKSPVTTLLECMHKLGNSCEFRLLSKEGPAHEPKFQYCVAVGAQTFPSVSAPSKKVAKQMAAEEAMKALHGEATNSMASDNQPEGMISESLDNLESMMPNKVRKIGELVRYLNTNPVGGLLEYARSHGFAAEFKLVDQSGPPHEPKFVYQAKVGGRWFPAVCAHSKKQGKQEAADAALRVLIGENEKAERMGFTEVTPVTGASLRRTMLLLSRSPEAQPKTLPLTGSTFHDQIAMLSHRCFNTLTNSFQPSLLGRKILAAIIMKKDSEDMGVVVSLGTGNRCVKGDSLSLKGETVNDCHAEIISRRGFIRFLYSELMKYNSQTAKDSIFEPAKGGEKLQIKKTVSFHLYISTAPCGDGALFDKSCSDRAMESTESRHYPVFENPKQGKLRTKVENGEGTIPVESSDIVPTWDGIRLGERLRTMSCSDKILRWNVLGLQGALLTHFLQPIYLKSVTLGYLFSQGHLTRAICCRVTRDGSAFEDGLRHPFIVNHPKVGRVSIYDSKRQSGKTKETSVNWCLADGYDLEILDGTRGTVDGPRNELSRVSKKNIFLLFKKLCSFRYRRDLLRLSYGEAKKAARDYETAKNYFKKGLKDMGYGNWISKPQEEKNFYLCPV
Nature of the assay: ADAR1 Inhibition Assay (IFN fold-induction, Quanti-Luc luminescence, p110 KO A549 dual cells). The class given is cell-based. Particulars: IFN fold-induction vs DMSO, 24 and 48 h. The gist of the method: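 p110 KO A549 dual cells (20,000/well) in supplemented DMEM, treated next day with compound at 1% final DMSO for 24 and 48 h at 37 °C, 5% CO2. Supernatant luminescence read with Quanti-Luc; IFN fold-induction = sample RLU/mean DMSO RLU, used for EC50.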

For orientation: pEC50 means the EC50 on a negative log10 scale, so that one unit is a factor of ten. The low end stands for a large EC50, the high end for a small EC50.

pEC50: −log10 of the molar value.

On to `CCOC(=O)c1cc(-c2ccccc2)sc1NC(=O)c1nnc(-c2cccc(NS(C)(=O)=O)c2)o1` [Compound 219], for which the pEC50 is at least 4.60. `CS(=O)(=O)Nc1cccc(C(=O)OCC(=O)N2CCN(c3ccccc3)C2=S)c1` [Compound 221] showed a pEC50 of under 4.00.

In turn, `CCOC(=O)c1cc(-c2ccccc2)sc1NC(=O)c1nnc(-c2cccc(NS(C)(=O)=O)c2)s1` [Compound 222] had a negative logarithm of the EC50 (pEC50) of under 4.00. As for `CS(=O)(=O)Nc1cccc(C(=O)OCC(=O)Nc2sc(-c3ccccc3)cc2C(=O)OCCOCc2ccccc2)c1` [Compound 223], the figure is under 4.00; as for `CCOC(=O)c1cc(-c2ccccc2)sc1NC(=O)C1CN(C(=O)c2cccc(NS(C)(=O)=O)c2)CCO1` (centres unmarked) [Compound 224], under 4.00; as for `CCOC(=O)c1cc(-c2ccccc2)sc1NC(=O)Cn1cnc2cnc(NS(C)(=O)=O)nc21` [Compound 225], under 4.00. As for `CCOC(=O)c1cc(-c2ccc(C(=O)O)cc2)sc1NC(=O)COC(=O)c1cccc(NS(C)(=O)=O)c1` [Compound 226], the negative logarithm of the EC50 (pEC50) is under 4.00. For `CCOC(=O)c1cc(-c2ccccc2)sc1NC(=O)C1CCN(S(=O)(=O)c2cccc(NS(C)(=O)=O)c2)C1` (centres unmarked) [Compound 227], the pEC50 was under 4.00. Consider `CCOC(=O)c1cc(-c2ccccc2)sc1NC(=O)CCOC(=O)c1cccc(NS(C)(=O)=O)c1` [Compound 229], for which the negative-log EC50 (pEC50) is under 4.00. To `CCOC(=O)c1cc(C2CC2)sc1NC(=O)COC(=O)c1cccc(NS(C)(=O)=O)c1` [Compound 230] belongs under 4.00; to `CCOC(=O)c1cc(-c2ccccc2)sc1NC(=O)C(C)(C)Nc1cccc(NS(C)(=O)=O)c1` [Compound 231], under 4.00.

`CCOC(=O)c1cc(-c2ccccc2)sc1NC(=O)CNS(=O)(=O)c1cccc(NS(C)(=O)=O)c1` [Compound 232] had a pEC50 of under 4.00.

Consider `CCOC(=O)c1cc(-c2ccccc2)sc1N1C(=O)N(c2cccc(NS(C)(=O)=O)c2)C(C)(C)C1=O` [Compound 233], for which the pEC50 was under 4.00.

As for `CCOC(=O)c1cc(-c2ccccc2)sc1NC(=O)CN1C(=O)c2ccc(NS(C)(=O)=O)cc2C1=O` [Compound 234], the pEC50 was under 4.00. As for `CCOc1nc(NC(=O)COC(=O)c2cccc(NS(C)(=O)=O)c2)ncc1-c1ccccc1` [Compound 235], the figure is under 4.00; as for `CCOC(=O)c1cccc2nc(NC(=O)COC(=O)c3cccc(NS(C)(=O)=O)c3)sc12` [Compound 236], under 4.00; as for `CCOC(=O)c1cc(-c2ccccc2)sc1NC(=O)CCN(C(C)=O)c1cccc(N(C(C)=O)S(C)(=O)=O)c1` [Compound 237], under 4.00. As for `CCOC(=O)c1cc(-c2ccccc2)sc1NC(=O)CN1C(=O)CN(C(=O)c2cccc(NS(C)(=O)=O)c2)C1=O` [Compound 238], the figure is under 4.00.

As to `CCOC(=O)c1cc(-c2ccccc2)sc1NC(=O)CN1C(=O)CN(S(C)(=O)=O)C1=O` [Compound 239], the pEC50 was under 4.00. To `CCOC(=O)c1cc(-c2ccccc2)sc1NC(=O)COC(C)c1cccc(NS(C)(=O)=O)c1` (centres unmarked) [Compound 240] belongs under 4.00; to `CCOC(=O)c1cc(-c2ccccc2)sc1NC(=O)Cn1ncc2ccc(NS(C)(=O)=O)cc21` [Compound 242], under 4.00; to `CCOC(=O)c1c(NC(=O)COC(=O)c2cccc(NS(C)(=O)=O)c2)sc2ccccc12` [Compound 243], under 4.00. The compound `CCOC(=O)c1cc(-c2ccccc2)sc1NC(=O)c1coc(-c2cccc(NS(C)(=O)=O)c2)n1` [Compound 244] had a pEC50 of under 4.00.

`CCOC(=O)c1nc(-c2ccccc2)ccc1NC(=O)COC(=O)c1cccc(NS(C)(=O)=O)c1` [Compound 245] showed a pEC50 of under 4.00. Take `CCOC(=O)c1cc(-c2ccccc2)sc1NC(=O)c1cnc(-c2cccc(NS(C)(=O)=O)c2)s1` [Compound 246]: the pEC50 was under 4.00. Compound `CCOC(=O)c1cc(NC(=O)COC(=O)c2cccc(NS(C)(=O)=O)c2)sc1-c1ccccc1` [Compound 247] had a pEC50 of under 4.00. Consider `CCOC(=O)c1cc(-c2ccccc2)sc1NC(=O)c1cnc(-c2cccc(NS(C)(=O)=O)c2)o1` [Compound 248], for which the pEC50 is under 4.00. To `CCOC(=O)c1cc(NC(=O)COC(=O)c2cccc(NS(C)(=O)=O)c2)ncc1-c1ccccc1` [Compound 249] belongs under 4.00; to `CCOC(=O)c1cc(-c2ccccc2)sc1NC(=O)COC(c1cccc(NS(C)(=O)=O)c1)C(F)(F)F` (centres unmarked) [Compound 250], under 4.00; to `CCOC(=O)c1c(NC(=O)COC(=O)c2cccc(NS(C)(=O)=O)c2)sc(-c2ccccc2)c1C(=O)OCC` [Compound 251], under 4.00. To `CCOC(=O)c1cc(-c2ccccc2)sc1NC(=O)c1cccc(-c2cccc(NS(C)(=O)=O)c2)c1` [Compound 252] belongs under 4.00; to `CCOC(=O)c1cnc(NC(=O)COC(=O)c2cccc(NS(C)(=O)=O)c2)c(-c2ccccc2)c1` [Compound 254], under 4.00. To `CCOC(=O)c1cc(-c2ccccc2)sc1NC(=O)c1nc(-c2cccc(NS(C)(=O)=O)c2)no1` [Compound 255] belongs under 4.00.

Consider `CCOC(=O)c1cc(-c2ccccc2)sc1NC(=O)COC(=O)c1cccc(C(=O)NS(C)(=O)=O)c1` [Compound 256], for which the pEC50 is under 4.00. In the case of `CCOC(=O)c1cc(-c2ccccc2)sc1NC(=O)COC(=O)c1cccc(NS(=O)(=O)C(F)(F)F)c1` [Compound 257], the pEC50 is under 4.00. As for `COC(=O)c1nc(-c2ccccc2)cnc1NC(=O)COC(=O)c1cccc(NS(C)(=O)=O)c1` [Compound 258], the figure is under 4.00; as for `CS(=O)(=O)Nc1cccc(C(=O)OCC(=O)Nc2ncc(-c3ccccc3)cc2CO)c1` [Compound 259], under 4.00.

In the case of `CCOC(=O)c1cc(-c2ccccc2)cnc1NC(=O)COC(=O)c1cccc(NS(C)(=O)=O)c1` [Compound 260], the pEC50 is under 4.00. Turning to `CCOC(=O)c1cc(-c2ccccc2)sc1NC(=O)c1cc(-c2cccc(NS(C)(=O)=O)c2)ncn1` [Compound 261], the pEC50 was under 4.00. As for `CCOC(=O)c1cc(-c2ccccc2)sc1NC(=O)NNC(=O)c1cccc(NS(C)(=O)=O)c1` [Compound 262], the figure is under 4.00.

In turn, `CCOC(=O)c1cc(NC(=O)c2ccccc2)sc1NC(=O)COC(=O)c1cccc(NS(C)(=O)=O)c1` [Compound 263] gave a pEC50 of under 4.00. As for `CCOC(=O)c1cc(-c2ccccc2)sc1NC(=O)c1cncc(-c2cccc(NS(C)(=O)=O)c2)n1` [Compound 264], the figure is under 4.00; as for `CS(=O)(=O)Nc1cccc(C(=O)OCC(=O)Nc2cc(-c3ccccc3)[nH]n2)c1` [Compound 265], under 4.00. To `CCOC(=O)c1cc(-c2ccc(C(=O)Nc3cccc(NS(C)(=O)=O)c3)cc2)sc1NC(C)=O` [Compound 266] belongs under 4.00; to `CCOC(=O)c1cc(-c2ccccc2)sc1NC(=O)Oc1ccc(NS(C)(=O)=O)cc1` [Compound 267], under 4.00. `CCOC(=O)c1cc(-c2ccccc2)sc1NC(=O)c1ccc(-c2cccc(NS(C)(=O)=O)c2)o1` [Compound 268] gave a pEC50 of under 4.00.

`CS(=O)(=O)Nc1cccc(NC(=O)c2cc(-c3ccccc3)sc2N)c1` [Compound 269] had a pEC50 of under 4.00. Compound `CS(=O)(=O)Nc1cccc(C(=O)OCCNC(=O)c2csc(-c3ccccc3)c2)c1` [Compound 271] gave a pEC50 of under 4.00. As for `CCOC(=O)c1cc(-c2ccccc2)sc1NC(=O)c1nncn1-c1cccc(NS(C)(=O)=O)c1` [Compound 272], the figure is under 4.00; as for `CCOC(=O)c1cc(-c2ccccc2)sc1NC(=O)c1nn(-c2cccc(NS(C)(=O)=O)c2)c(=O)cc1C` [Compound 273], under 4.00. In turn, `CCOC(=O)c1cc(-c2ccccc2)sc1NC(=O)NS(=O)(=O)c1cccc(NS(C)(=O)=O)c1` [Compound 275] gave a pEC50 of under 4.00. As for `CCOC(=O)c1cc(-c2ccccc2)sc1NC(=O)CCOc1cccc(NS(C)(=O)=O)c1` [Compound 276], the figure is under 4.00. To `CCOC(=O)c1ccncc1NC(=O)COC(=O)c1cccc(NS(C)(=O)=O)c1` [Compound 277] belongs under 4.00.
